pIC50: −log10 of the molar value. Several values for one entry are separate records, joined by “and”; a condition that tells them apart may be missing. Equal values may be shown once.
Tested on: 156681-154-R-J1-PDC complex spheroid viability
Test: Anticancer human tumor 156681-154-R-J1-PDC patient-derived melanoma cell line growth inhibition [CLK]
Conditions: for viability, T/C: stronger effect = lower value
In short: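 Patient-derived tumor cells grown as complex spheroids with HUVEC endothelial cells and mesenchymal stem cells, treated with drug combinations. Concentrations descend in half-log steps from near clinical Cmax, or from 10 microM if Cmax unknown.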

[1] = curve of first compound, second compound 0.0316 µM
[2] = curve of first compound, second compound 0.1 µM
[3] = curve of first compound, second compound 0.316 µM
[4] = curve of first compound, second compound 1 µM
[5] = curve of first compound, second compound 3.16 µM
[6] = curve of first compound, second compound 10 µM
[7] = second compound 0.0316 µM, first compound 0.00316 µM
[8] = second compound 0.0316 µM, first compound 0.01 µM
[9] = second compound 0.0316 µM, first compound 0.0316 µM
[10] = second compound 0.0316 µM, first compound 0.1 µM
[11] = second compound 0.1 µM, first compound 0.00316 µM
[12] = second compound 0.1 µM, first compound 0.01 µM
[13] = second compound 0.1 µM, first compound 0.0316 µM
[14] = second compound 0.1 µM, first compound 0.1 µM
[15] = second compound 0.316 µM, first compound 0.00316 µM
[16] = second compound 0.316 µM, first compound 0.01 µM
[17] = second compound 0.316 µM, first compound 0.0316 µM
[18] = second compound 0.316 µM, first compound 0.1 µM
[19] = second compound 1 µM, first compound 0.00316 µM
[20] = second compound 1 µM, first compound 0.01 µM
[21] = second compound 1 µM, first compound 0.0316 µM
[22] = second compound 1 µM, first compound 0.1 µM
[23] = second compound 3.16 µM, first compound 0.00316 µM
[24] = second compound 3.16 µM, first compound 0.01 µM
[25] = second compound 3.16 µM, first compound 0.0316 µM
[26] = second compound 3.16 µM, first compound 0.1 µM
[27] = second compound 10 µM, first compound 0.00316 µM
[28] = second compound 10 µM, first compound 0.01 µM
[29] = second compound 10 µM, first compound 0.0316 µM
[30] = second compound 10 µM, first compound 0.1 µM
[31] = second compound 0.0316 µM, first compound 0.316 µM
[32] = second compound 0.0316 µM, first compound 1 µM
[33] = second compound 0.1 µM, first compound 0.316 µM
[34] = second compound 0.1 µM, first compound 1 µM
[35] = second compound 0.316 µM, first compound 0.316 µM
[36] = second compound 0.316 µM, first compound 1 µM
[37] = second compound 1 µM, first compound 0.316 µM
[38] = second compound 1 µM, first compound 1 µM
[39] = second compound 3.16 µM, first compound 0.316 µM
[40] = second compound 3.16 µM, first compound 1 µM
[41] = second compound 10 µM, first compound 0.316 µM
[42] = second compound 10 µM, first compound 1 µM
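Note: spheroids exposed to the agents for seven days.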
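Throughout, for viability, T/C: 100% = DMSO vehicle control viability.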

SMILES: Cn1ncnc1[C@H]1c2n[nH]c(=O)c3cc(F)cc(c23)N[C@@H]1c1ccc(F)cc1 + CNC(=O)c1ccc(Nc2nc(OC3CCCC3)c3c(-c4ccc5nc(C)oc5c4)c[nH]c3n2)c(OC)c1
- pIC50 [1]: < 7.00
- pIC50 [2]: < 7.00
- pIC50 [3]: < 7.00
- pIC50 [4]: 9.50
- pIC50 [5]: > 9.50
- pIC50 [6]: > 9.50
- viability, T/C (second compound 0.0316 µM, first compound 0.000316 µM): 91.5%
- viability, T/C (second compound 0.0316 µM, first compound 0.001 µM): 87.8%
- viability, T/C [7]: 74.9%
- viability, T/C [8]: 84.6%
- viability, T/C [9]: 83.2%
- viability, T/C [10]: 64.1%
- viability, T/C (second compound 0.1 µM, first compound 0.000316 µM): 56.9%
- viability, T/C (second compound 0.1 µM, first compound 0.001 µM): 68.6%
- viability, T/C [11]: 75.9%
- viability, T/C [12]: 66.6%
- viability, T/C [13]: 62.3%
- viability, T/C [14]: 53.5%
- viability, T/C (second compound 0.316 µM, first compound 0.000316 µM): 67%
- viability, T/C (second compound 0.316 µM, first compound 0.001 µM): 68.4%
- viability, T/C [15]: 55.4%
- viability, T/C [16]: 58.4%
- viability, T/C [17]: 60%
- viability, T/C [18]: 51.9%
- viability, T/C (second compound 1 µM, first compound 0.000316 µM): 51.8%
- viability, T/C (second compound 1 µM, first compound 0.001 µM): 51.1%
- viability, T/C [19]: 39.8%
- viability, T/C [20]: 44.3%
- viability, T/C [21]: 53.6%
- viability, T/C [22]: 29.3%
- viability, T/C (second compound 3.16 µM, first compound 0.000316 µM): 55.1%
- viability, T/C (second compound 3.16 µM, first compound 0.001 µM): 41.5%
- viability, T/C [23]: 43.6%
- viability, T/C [24]: 49.5%
- viability, T/C [25]: 39.5%
- viability, T/C [26]: 33.1%
- viability, T/C (second compound 10 µM, first compound 0.000316 µM): 49.3%
- viability, T/C (second compound 10 µM, first compound 0.001 µM): 43.9%
- viability, T/C [27]: 33.6%
- viability, T/C [28]: 32.5%
- viability, T/C [29]: 38.6%
- viability, T/C [30]: 25.4%

SMILES: COc1ccc([C@@H](O)c2cc(-c3ncnc4cc(N5CCOCC5)ccc34)c(F)cc2Cl)nn1
- viability, T/C (compound 0.0316 µM): 109% and 79.3%
- viability, T/C (compound 0.1 µM): 80.7% and 73.7%
- viability, T/C (compound 0.316 µM): 90.2% and 74.1%
- viability, T/C (compound 1 µM): 74.8% and 48.6%
- viability, T/C (compound 3.16 µM): 49.6% and 41.3%
- viability, T/C (compound 10 µM): 24.8% and 27.6%
- pIC50 (curve of compound): 5.47 and 5.90

SMILES: CC(CO)NC(=O)c1cc(-c2ccc(Cl)cc2)nn(-c2cnn(C)c2)c1=O (stereo not drawn) + CN1CCN(c2cc(C(=O)Nc3cc4cc(-c5cnn(C)c5)ccc4cn3)ccn2)CC1
- pIC50 [1]: < 5.00
- pIC50 [2]: < 5.00
- pIC50 [3]: > 7.50
- pIC50 [4]: > 7.50
- pIC50 [5]: > 7.50
- pIC50 [6]: > 7.50
- viability, T/C [9]: 97.7%
- viability, T/C [10]: 107%
- viability, T/C [31]: 103%
- viability, T/C [32]: 114%
- viability, T/C (second compound 0.0316 µM, first compound 3.16 µM): 84.2%
- viability, T/C (second compound 0.0316 µM, first compound 10 µM): 59.6%
- viability, T/C [13]: 99.3%
- viability, T/C [14]: 94.7%
- viability, T/C [33]: 87.5%
- viability, T/C [34]: 81.8%
- viability, T/C (second compound 0.1 µM, first compound 3.16 µM): 67%
- viability, T/C (second compound 0.1 µM, first compound 10 µM): 56%
- viability, T/C [17]: 26.8%
- viability, T/C [18]: 38.3%
- viability, T/C [35]: 34.2%
- viability, T/C [36]: 29.2%
- viability, T/C (second compound 0.316 µM, first compound 3.16 µM): 29.1%
- viability, T/C (second compound 0.316 µM, first compound 10 µM): 21.5%
- viability, T/C [21]: 0.34%
- viability, T/C [22]: 0.99%
- viability, T/C [37]: 0.36%
- viability, T/C [38]: 1.64%
- viability, T/C (second compound 1 µM, first compound 3.16 µM): 1.51%
- viability, T/C (second compound 1 µM, first compound 10 µM): 2.77%
- viability, T/C [25]: 0.25%
- viability, T/C [26]: 0.92%
- viability, T/C [39]: 0.29%
- viability, T/C [40]: 1.68%
- viability, T/C (second compound 3.16 µM, first compound 3.16 µM): 0.58%
- viability, T/C (second compound 3.16 µM, first compound 10 µM): 0.23%
- viability, T/C [29]: 0.29%
- viability, T/C [30]: 0.66%
- viability, T/C [41]: 0.9%
- viability, T/C [42]: 1.31%
- viability, T/C (second compound 10 µM, first compound 3.16 µM): 0.62%
- viability, T/C (second compound 10 µM, first compound 10 µM): 1.4%

SMILES: CCN1CCN(Cc2ccc(Nc3ncc(F)c(-c4cc(F)c5nc(C)n(C(C)C)c5c4)n3)nc2)CC1 + CN1CCN(c2cc(C(=O)Nc3cc4cc(-c5cnn(C)c5)ccc4cn3)ccn2)CC1
- pIC50 [1]: 6.18
- pIC50 [2]: 6.09
- pIC50 [3]: > 8.50
- pIC50 [4]: > 8.50
- pIC50 [5]: > 8.50
- pIC50 [6]: > 8.50
- viability, T/C [7]: 97%
- viability, T/C [8]: 94.9%
- viability, T/C [9]: 87.5%
- viability, T/C [10]: 77.6%
- viability, T/C [31]: 71.8%
- viability, T/C [32]: 39.1%
- viability, T/C [11]: 96.2%
- viability, T/C [12]: 76.2%
- viability, T/C [13]: 70.6%
- viability, T/C [14]: 89.9%
- viability, T/C [33]: 67.2%
- viability, T/C [34]: 46.1%
- viability, T/C [15]: 21.6%
- viability, T/C [16]: 21.1%
- viability, T/C [17]: 17.8%
- viability, T/C [18]: 23.1%
- viability, T/C [35]: 18.7%
- viability, T/C [36]: 9.12%
- viability, T/C [19]: 0.15%
- viability, T/C [20]: 0.55%
- viability, T/C [21]: 3.58%
- viability, T/C [22]: 0.43%
- viability, T/C [37]: 1.38%
- viability, T/C [38]: 0.47%
- viability, T/C [23]: 0.8%
- viability, T/C [24]: 1.88%
- viability, T/C [25]: 0.12%
- viability, T/C [26]: 1.66%
- viability, T/C [39]: 2.74%
- viability, T/C [40]: 1.56%
- viability, T/C [27]: 0.1%
- viability, T/C [28]: 0.55%
- viability, T/C [29]: 0.69%
- viability, T/C [30]: 0.18%
- viability, T/C [41]: 0.5%
- viability, T/C [42]: 3.25%

From PubChem BioAssay AID2060627 (Molecular Pharmacology Branch, DTP, NCI, 2025)
